One assay has as its system islet allografts. Briefly: Murine islet allotransplantation (BALB/c islets into STZ-treated C57BL/6 mice). The class given is in vivo. The procedure: Pancreatic islets from BALB/c mice were isolated by collagenase digestion and density gradient separation as previously described (33, 34). Subsequently, four to five hundred islets were inoculated under the renal capsule of each C57BL/6 recipient rendered diabetic with streptozotocin (STZ) (200 mg/kg, administered i.p. Sigma-Aldrich). Islet transplantation success was confirmed by glycaemia normalization. Rejection of islet allografts was defined as blood glucose levels >250 mg/dl for at least 2 consecutive days (35). Treatment modalities were the following: transplanted mice were intraperitoneally injected according to the following protocols: 1) Exendin-4 (Exe-4) (Amylin Pharmaceuticals, San Diego, CA -USA) 0.2pg twice/day for two weeks after transplant; 2) Exe-4 0.2pg twice/day from the day before until two weeks after transplant; 3) Exendin-4 2µg twice/day from the day before until two weeks after transplant; 4) Exendin-4 2µg twice/day + Exendin-9-39 (Exe-9) (Sigma-Aldrich) 2µg twice/day from the day before until two weeks after transplant; 5) Exendin-4 2µg twice/day from the day before until two weeks after transplant + Rapamycin 0.1mg/die for two weeks; 6) saline 0.5ml twice/day for two weeks. The follow-up of the transplanted mice was for 100 days.

Assay [1] concerns untransduced-mock and pmY-GLP-1R transduced CD3^+ T cells. As to the kind of experiment: Transwell migration assay toward SDF-1, mock and pmY-GLP-1R transduced CD3+ T cells. The assay is classed as cell-based, murine. The following applies: both untransduced-mock and pmY-GLP-1R transduced CD3^+ T cells, Exe-4 (1 nM). As to the method:
(§1) Transwell migration assays were performed on GLP-1R^pos and GLP-1R^neg CD3^+ cells or respectively untransduced-mock CD3^+ T cells or pmY-GLP-1R transduced CD3^+ T cells, freshly isolated or activated with anti-CD3/CD28 (0.5 µg /ml each) in the presence or not of Exe-4 (1 nM). Chemotaxis assessments via transwell migration assay were performed using polycarbonate membranes with 5 µm pores (Corning) in accordance with the manufacturer's instructions and as previously published (42). Cells were washed, re-suspended in migration media (RPMI), and added to the upper chamber of the plate, while migration media containing 0 or 50 ng/mL SDF-1 (R&D Systems) was added to the bottom chamber. Treated cells were incubated over night at 37°C to migrate through the polycarbonate membrane into the bottom chamber. Input cell counts were obtained by flow cytometry with a BD FACSCelesta (BD, Biosciences) as well as cell counts of migrated cells in the lower chambers. Migration percentage was calculated as the number of cells in the lower chamber (migrated) compared to total input cell count for three separate wells. Mean migration percentages and standard deviations (SD) were calculated across the different donor cell lots. Analysis of lower chambers without SDF-1 (negative gradients) was used to control for any nonspecific increase in chemotaxis.

Assay [2] concerns GLP-1R^pos and GLP-1R^neg CD3^+ T cells. Briefly: Seahorse bioenergetic analysis, GLP-1Rpos and GLP-1Rneg CD3+ T cells. The assay is classed as cell-based, C57BL/6 mice. The following applies: GLP-1R^pos CD3^+ T cells, Exe-4 (1 nM). The procedure: Cellular Bioenergetics were analyzed using the Seahorse Extracellular Flux Analyzer Xfe96 (Agilent Technologies, Santa Clara, CA, United States), which simultaneously measures Oxygen Consumption Rate (OCR, pmolO2/min), ExtraCellular Acidification Rate (ECAR, mpH/min) and Proton Efflux Rate (PER, pmolH^+/min). For Seahorse experiments 150.000 cells either freshly isolated GLP-1R^pos or GLP-1R^neg CD3^+ T cells or activated with soluble anti-CD3/CD28 at 0.5 µg/ml each in the presence or not of Exe-4 (1 nM); in another setting untransduced mock CD3^+ T cells or pmY-GLP-1R CD3^+ T cells already activated with soluble anti-CD3/CD28 at 0.5 µg/ml each in the presence or not of Exe-4 (1 nM). Cells were resuspended in 50 µL assay medium (Agilent #103576-100 RPMI Medium pH7.4, supplemented with 10mM glucose, 2mM glutamine and 1mM Na-pyruvate) were seeded in each CellTak-precoated well of an Agilent Xfe96 Pro well plate. The cell plate was centrifuged 2 times at 40 × g (zero braking) for 1 minute. After centrifugation, 150 µL warm assay medium was gently added to each well. […]
Seahorse parameters were normalized to cell number in each well. To this purpose, at the end of the Seahorse analysis, cell nuclei were stained with Hoechst 33342 (1 µg/mL) for about 15 min, imaged and counted with Operetta CLS™ software Harmony, as previously described (43). […]

Assay [3] shares this test system. As to the kind of experiment: Transwell migration assay toward SDF-1, GLP-1Rpos and GLP-1Rneg CD3+ T cells. The assay is classed as cell-based, C57BL/6 mice. The following applies: GLP-1R^neg CD3^+ T cells only, Exe-4 (1 nM), SDF-1 gradient. The procedure:
as §1

A further assay deals with CD3^+ T cells. Briefly: Phosphoproteomic array of CD3+ T cells. The class given is cell-based, murine. The following applies: Exe-4 (1 nM), 24 hours, vs untreated. The procedure: Isolated CD3^+ T cells from splenocytes were treated with Exendin-4 (Exe-4) for 24hrs or left untreated. Total soluble proteins from both cell extracts, approximately 7×10^6 cells per conditions were used, all steps were performed using the Phospho Explorer Antibody Array kit (Full Moon Biosystems, PEX100) as recommended by the manufacturer (41). Next, soluble extracted proteins were biotinylated and were next incubated with a mixture of Cy3-streptavidin-detection buffer and the array slides were incubated on a rotating shaker for 30 min at RT. After, several washing steps, the array slides were allowed to dry by centrifugation. Dry array slides were analyzed by a slide-based microarray scanner as recommended by the manufacturer.

As to Exendin-4 [Exe-4], the “recipients with prolongation of islet survival up to 100 days” value in the assay with islet allografts (high doses of Exe-4 preceded by a pre-treatment) came out at 60%. Moreover, the “[MST] (islet allograft survival)” value in the assay with islet allografts (high doses of Exe-4 preceded by a pre-treatment (2µg twice/day, i.p.), p<0.001 vs untreated) is reported as 67 days. In addition, the “graft infiltration (Hematoxylin and eosin staining)” value in the assay on islet allografts (islet allograft at day 14, Exe-4-treated mice) is “decreased graft infiltration”. In addition, the “recipients with prolongation of islet survival up to 100 days” value with islet allografts (low dose of Exe-4) is given as 20%. The “[MST] (islet allograft survival)” value in the assay on islet allografts (low dose of Exe-4 (b66 prints 0.2pg twice/day, i.p.), untreated [MST]=12 days, p=0.001) was 41 days. In the assay with islet allografts (splenic, Exe-4 treatment), the “CD8^+ effector memory cells” value is reported as “reduction” and the Treg lymphocytes entry was “significant increase”. In addition, the “migratory ability in response to SDF-1” value in assay [1] is listed as “reduced”. Also, in assay [2], the “mitochondrial ATP production” value is “no effect” and the “mitochondrial respiration (OCR values, maximal OXPHOS)” value was “slightly increased”. Further, the migratory potential result in assay [3] was “reduced”. Besides, the “expression and activation of signalling molecules (phosphoproteomic arrays)” value with CD3^+ T cells was “altered the expression and the activation of several signalling molecules”.

For the origin of these results see patent EP4623928A1, “GLP-1R ANTAGONISTS FOR THE TREATMENT OF CANCER” (Fiorina, Paolo, priority 2024, dated 2025).
